# Data from the kinase profiling compilation of Christmann-Franck et al. (2016).
# Assays:
# Test in all cases: radiometric filter-binding kinase assay, Kinase HotSpot
# Details in all cases: compound 0.5 µM; ATP 10 µM
# ADRBK1 (human) = ADRBK1 (human) (UniProt P25098)
# ADRBK2 (human) = ADRBK2 (human) (UniProt P35626)
# BRSK2 (human) = BRSK2 (human) (UniProt Q8IWQ3)
# CDK1 CCNA2 (human) = CDK1 CCNA2 (human) (UniProt P06493+P20248)
# CDK2 CCNE1 (human) = CDK2 CCNE1 (human) (UniProt P24941+P24864)
# CDK5 CDK5R1 p25 (human) = CDK5 CDK5R1 p25 (human) (UniProt Q00535+Q15078)
# CDK6 CCND1 (human) = CDK6 CCND1 (human) (UniProt Q00534+P24385)
# CHEK2 (human) = CHEK2 (human) (UniProt O96017)
# CLK1 (human) = CLK1 (human) (UniProt P49759)
# Sequence of CLK1 (human) (P49759 whole entry, looked up): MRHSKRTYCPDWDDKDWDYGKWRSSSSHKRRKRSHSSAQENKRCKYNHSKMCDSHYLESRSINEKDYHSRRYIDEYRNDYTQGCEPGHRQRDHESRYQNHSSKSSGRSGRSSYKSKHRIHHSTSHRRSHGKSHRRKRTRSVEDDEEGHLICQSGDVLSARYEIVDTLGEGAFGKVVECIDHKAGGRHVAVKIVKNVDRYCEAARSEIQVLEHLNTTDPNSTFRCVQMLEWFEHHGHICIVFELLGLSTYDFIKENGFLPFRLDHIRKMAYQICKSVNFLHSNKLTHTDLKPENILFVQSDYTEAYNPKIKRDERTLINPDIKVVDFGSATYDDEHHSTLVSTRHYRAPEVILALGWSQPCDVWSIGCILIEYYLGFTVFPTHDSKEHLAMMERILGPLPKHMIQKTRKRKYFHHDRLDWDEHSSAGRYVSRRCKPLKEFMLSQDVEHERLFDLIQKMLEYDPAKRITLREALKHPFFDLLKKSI
# CSNK1G1 (human) = CSNK1G1 (human) (UniProt Q9HCP0)
# EPHA1 (human) = EPHA1 (human) (UniProt P21709)
# EPHA4 (human) = EPHA4 (human) (UniProt P54764)
# [1] = system: FLT4 (human), P35916 [Q890H]
# FYN (human) = FYN (human) (UniProt P06241)
# Sequence of FYN (human) (P06241 whole entry, looked up): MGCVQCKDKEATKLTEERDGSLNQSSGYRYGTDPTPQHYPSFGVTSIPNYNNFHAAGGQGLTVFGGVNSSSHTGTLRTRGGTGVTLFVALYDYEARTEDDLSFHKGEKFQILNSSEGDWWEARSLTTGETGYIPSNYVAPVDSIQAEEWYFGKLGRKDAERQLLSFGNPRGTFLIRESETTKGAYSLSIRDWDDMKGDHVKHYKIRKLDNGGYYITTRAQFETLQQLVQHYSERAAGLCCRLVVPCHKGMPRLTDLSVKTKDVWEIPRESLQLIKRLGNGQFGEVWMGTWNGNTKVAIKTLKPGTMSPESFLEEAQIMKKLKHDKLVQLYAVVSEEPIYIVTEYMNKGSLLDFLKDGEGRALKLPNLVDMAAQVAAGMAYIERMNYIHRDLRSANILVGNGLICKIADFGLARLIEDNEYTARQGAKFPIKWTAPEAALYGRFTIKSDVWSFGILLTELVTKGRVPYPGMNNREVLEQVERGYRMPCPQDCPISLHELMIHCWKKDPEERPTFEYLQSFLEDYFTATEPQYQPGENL
# GRK7 (human) = GRK7 (human) (UniProt Q8WTQ7)
# LRRK2 (human) = LRRK2 (human) (UniProt Q5S007)
# LTK (human) = LTK (human) (UniProt P29376)
# [2] = system: MAP2K6 (human), P52564 [S207E/T211E]
# Sequence of MAP2K6 (human), P52564 [S207E/T211E] (P52564 whole entry S207E/T211E, looked up): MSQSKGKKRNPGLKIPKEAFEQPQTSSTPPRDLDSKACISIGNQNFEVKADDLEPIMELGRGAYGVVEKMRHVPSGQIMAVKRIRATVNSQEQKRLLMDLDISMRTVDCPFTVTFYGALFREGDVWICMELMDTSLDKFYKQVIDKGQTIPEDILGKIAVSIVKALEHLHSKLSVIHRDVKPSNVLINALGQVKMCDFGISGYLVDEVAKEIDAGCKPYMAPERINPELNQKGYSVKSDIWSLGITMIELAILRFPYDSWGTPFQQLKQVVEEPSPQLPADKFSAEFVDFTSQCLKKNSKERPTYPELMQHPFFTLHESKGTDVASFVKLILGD
# MAP3K5 (human) = MAP3K5 (human) (UniProt Q99683)
# MAPK11 (human) = MAPK11 (human) (UniProt Q15759)
# Sequence of MAPK11 (human) (Q15759 whole entry, looked up): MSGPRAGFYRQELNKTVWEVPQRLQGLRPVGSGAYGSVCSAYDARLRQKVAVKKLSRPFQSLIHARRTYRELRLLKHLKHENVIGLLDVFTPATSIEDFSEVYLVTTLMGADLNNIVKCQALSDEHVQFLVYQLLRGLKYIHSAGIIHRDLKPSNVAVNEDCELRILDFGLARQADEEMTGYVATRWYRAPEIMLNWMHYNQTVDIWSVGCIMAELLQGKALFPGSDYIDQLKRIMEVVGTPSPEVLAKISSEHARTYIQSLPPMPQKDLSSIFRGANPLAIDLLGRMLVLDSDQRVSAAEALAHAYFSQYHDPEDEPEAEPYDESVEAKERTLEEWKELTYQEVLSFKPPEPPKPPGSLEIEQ
# MAPK9 (human) = MAPK9 (human) (UniProt P45984)
# Sequence of MAPK9 (human) (P45984 whole entry, looked up): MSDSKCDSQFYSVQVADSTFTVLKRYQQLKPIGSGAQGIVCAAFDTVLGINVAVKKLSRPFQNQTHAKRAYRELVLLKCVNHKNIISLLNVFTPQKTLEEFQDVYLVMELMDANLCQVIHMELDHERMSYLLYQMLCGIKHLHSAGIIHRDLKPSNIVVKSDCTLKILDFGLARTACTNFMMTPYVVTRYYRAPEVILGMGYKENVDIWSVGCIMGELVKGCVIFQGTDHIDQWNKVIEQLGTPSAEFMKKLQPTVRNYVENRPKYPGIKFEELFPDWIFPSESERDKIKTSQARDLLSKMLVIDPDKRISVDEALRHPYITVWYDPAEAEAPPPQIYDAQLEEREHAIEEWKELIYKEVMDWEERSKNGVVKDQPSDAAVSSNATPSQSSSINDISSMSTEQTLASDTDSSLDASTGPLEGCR
# MARK3 (human) = MARK3 (human) (UniProt P27448)
# MARK4 (human) = MARK4 (human) (UniProt Q96L34)
# MELK (human) = MELK (human) (UniProt Q14680)
# MINK1 (human) = MINK1 (human) (UniProt Q8N4C8)
# NEK2 (human) = NEK2 (human) (UniProt P51955)
# NEK7 (human) = NEK7 (human) (UniProt Q8TDX7)
# Sequence of NEK7 (human) (Q8TDX7 whole entry, looked up): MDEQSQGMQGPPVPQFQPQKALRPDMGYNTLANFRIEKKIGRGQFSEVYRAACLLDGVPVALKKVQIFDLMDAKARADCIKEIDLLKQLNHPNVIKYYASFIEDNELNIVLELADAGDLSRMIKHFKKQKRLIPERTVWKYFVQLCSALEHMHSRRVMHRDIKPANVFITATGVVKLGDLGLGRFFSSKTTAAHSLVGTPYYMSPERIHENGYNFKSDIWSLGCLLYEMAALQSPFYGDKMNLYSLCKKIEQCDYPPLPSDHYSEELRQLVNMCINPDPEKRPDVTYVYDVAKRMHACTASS
# PDPK1 (human) = PDPK1 (human) (UniProt O15530)
# PIM1 (human) = PIM1 (human) (UniProt P11309)
# Sequence of PIM1 (human) (P11309 whole entry, looked up): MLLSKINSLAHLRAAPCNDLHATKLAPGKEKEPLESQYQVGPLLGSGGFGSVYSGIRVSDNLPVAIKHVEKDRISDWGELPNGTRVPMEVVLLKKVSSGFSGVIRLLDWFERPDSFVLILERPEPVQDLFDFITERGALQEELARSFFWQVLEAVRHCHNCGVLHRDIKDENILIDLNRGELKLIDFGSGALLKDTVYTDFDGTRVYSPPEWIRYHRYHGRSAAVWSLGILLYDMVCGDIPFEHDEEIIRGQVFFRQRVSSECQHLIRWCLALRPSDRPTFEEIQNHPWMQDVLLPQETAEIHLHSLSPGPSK
# PNCK (human) = PNCK (human) (UniProt Q6P2M8)
# PRKCI (human) = PRKCI (human) (UniProt P41743)
# Sequence of PRKCI (human) (P41743 whole entry, looked up): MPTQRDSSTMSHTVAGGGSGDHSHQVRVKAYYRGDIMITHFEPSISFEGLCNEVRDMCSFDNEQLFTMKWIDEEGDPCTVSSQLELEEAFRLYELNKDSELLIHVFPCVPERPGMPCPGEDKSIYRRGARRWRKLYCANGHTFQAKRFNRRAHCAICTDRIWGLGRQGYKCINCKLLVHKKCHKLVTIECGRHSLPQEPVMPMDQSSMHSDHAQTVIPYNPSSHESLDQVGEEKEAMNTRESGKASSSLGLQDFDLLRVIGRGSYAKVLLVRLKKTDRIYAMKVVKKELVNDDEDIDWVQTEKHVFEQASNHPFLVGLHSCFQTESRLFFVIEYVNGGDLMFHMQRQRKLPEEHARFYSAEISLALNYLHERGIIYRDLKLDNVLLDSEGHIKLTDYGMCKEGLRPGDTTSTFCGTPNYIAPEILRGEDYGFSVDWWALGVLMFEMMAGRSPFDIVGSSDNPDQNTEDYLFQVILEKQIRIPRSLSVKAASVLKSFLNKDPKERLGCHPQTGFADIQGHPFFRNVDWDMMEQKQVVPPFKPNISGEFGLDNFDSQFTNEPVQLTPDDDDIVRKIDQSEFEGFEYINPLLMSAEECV
# PTK2 (human) = PTK2 (human) (UniProt Q05397)
# PTK2B (human) = PTK2B (human) (UniProt Q14289)
# RAF1 (human) = RAF1 (human) (UniProt P04049)
# ROCK2 (human) = ROCK2 (human) (UniProt O75116)
# ROS1 (human) = ROS1 (human) (UniProt P08922)
# RPS6KB2 (human) = RPS6KB2 (human) (UniProt Q9UBS0)
# STK39 (human) = STK39 (human) (UniProt Q9UEW8)
# TBK1 (human) = TBK1 (human) (UniProt Q9UHD2)
# TEC (human) = TEC (human) (UniProt P42680)
# TYRO3 (human) = TYRO3 (human) (UniProt Q06418)
# Sequence of TYRO3 (human) (Q06418 whole entry, looked up): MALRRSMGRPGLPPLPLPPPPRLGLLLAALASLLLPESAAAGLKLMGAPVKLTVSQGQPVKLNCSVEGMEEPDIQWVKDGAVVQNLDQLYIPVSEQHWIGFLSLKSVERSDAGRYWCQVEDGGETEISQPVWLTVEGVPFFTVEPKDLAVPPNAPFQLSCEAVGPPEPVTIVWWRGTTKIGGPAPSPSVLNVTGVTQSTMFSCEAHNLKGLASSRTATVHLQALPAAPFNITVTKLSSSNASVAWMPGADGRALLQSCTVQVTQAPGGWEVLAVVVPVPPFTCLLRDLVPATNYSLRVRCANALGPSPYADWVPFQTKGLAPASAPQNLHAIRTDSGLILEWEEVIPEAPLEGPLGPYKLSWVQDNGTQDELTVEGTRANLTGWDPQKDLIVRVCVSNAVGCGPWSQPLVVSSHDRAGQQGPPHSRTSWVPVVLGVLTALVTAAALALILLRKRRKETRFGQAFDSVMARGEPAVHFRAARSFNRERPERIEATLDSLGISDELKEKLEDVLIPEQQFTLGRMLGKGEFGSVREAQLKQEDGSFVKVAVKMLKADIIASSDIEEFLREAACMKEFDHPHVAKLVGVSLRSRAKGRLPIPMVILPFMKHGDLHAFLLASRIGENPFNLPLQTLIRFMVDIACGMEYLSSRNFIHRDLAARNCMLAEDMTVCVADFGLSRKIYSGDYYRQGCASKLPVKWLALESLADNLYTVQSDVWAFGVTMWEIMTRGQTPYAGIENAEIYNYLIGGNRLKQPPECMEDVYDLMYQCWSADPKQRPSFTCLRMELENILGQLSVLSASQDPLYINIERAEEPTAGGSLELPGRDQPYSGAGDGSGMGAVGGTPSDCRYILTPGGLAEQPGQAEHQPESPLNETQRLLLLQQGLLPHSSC
# WNK2 (human) = WNK2 (human) (UniProt Q9Y3S1)
# Sequence of CDK1 CCNA2 (human) (P06493 whole entry, looked up): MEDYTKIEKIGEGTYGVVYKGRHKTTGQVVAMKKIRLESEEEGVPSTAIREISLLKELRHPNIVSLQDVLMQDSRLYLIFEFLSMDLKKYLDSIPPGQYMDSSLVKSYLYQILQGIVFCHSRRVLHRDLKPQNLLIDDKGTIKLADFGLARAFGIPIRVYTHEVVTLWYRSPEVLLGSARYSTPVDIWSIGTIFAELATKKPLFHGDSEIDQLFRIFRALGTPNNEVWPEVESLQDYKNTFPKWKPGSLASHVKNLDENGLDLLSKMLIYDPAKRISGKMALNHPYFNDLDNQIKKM
# Sequence of CDK1 CCNA2 (human) (P20248 whole entry, looked up): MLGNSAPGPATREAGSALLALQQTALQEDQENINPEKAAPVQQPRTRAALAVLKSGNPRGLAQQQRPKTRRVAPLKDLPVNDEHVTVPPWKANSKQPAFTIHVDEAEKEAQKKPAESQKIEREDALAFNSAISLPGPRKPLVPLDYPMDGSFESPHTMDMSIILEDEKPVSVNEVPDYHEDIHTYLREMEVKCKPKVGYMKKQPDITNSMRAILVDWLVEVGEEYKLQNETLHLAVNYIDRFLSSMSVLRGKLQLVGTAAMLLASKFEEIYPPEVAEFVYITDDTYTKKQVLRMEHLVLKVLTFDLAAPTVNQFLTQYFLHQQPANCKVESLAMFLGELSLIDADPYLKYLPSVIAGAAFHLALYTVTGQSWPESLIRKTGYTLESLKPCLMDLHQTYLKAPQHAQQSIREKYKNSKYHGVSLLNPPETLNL
smiles,measurement,setting,value
COc1cc2ncnc(Nc3ccc(OCc4ccccc4)cc3)c2cc1OC,residual activity,ADRBK1 (human),101%
same,residual activity,ADRBK2 (human),99.6%
same,residual activity,BRSK2 (human),98.7%
same,residual activity,CDK1 CCNA2 (human),97.2%
same,residual activity,CDK2 CCNE1 (human),96.7%
same,residual activity,CDK5 CDK5R1 p25 (human),97.8%
same,residual activity,CDK6 CCND1 (human),96.7%
same,residual activity,CHEK2 (human),14.2%
same,residual activity,CLK1 (human),111%
same,residual activity,CSNK1G1 (human),90.6%
same,residual activity,EPHA1 (human),102%
same,residual activity,EPHA4 (human),98.5%
same,residual activity,[1],98.9%
same,residual activity,FYN (human),86.3%
same,residual activity,GRK7 (human),101%
same,residual activity,LRRK2 (human),92.2%
same,residual activity,LTK (human),98.6%
same,residual activity,[2],109%
same,residual activity,MAP3K5 (human),97.8%
same,residual activity,MAPK11 (human),96.9%
same,residual activity,MAPK9 (human),106%
same,residual activity,MARK3 (human),106%
same,residual activity,MARK4 (human),99.5%
same,residual activity,MELK (human),102%
same,residual activity,MINK1 (human),94.3%
same,residual activity,NEK2 (human),107%
same,residual activity,NEK7 (human),101%
same,residual activity,PDPK1 (human),103%
same,residual activity,PIM1 (human),102%
same,residual activity,PNCK (human),99%
same,residual activity,PRKCI (human),101%
same,residual activity,PTK2 (human),105%
same,residual activity,PTK2B (human),99.8%
same,residual activity,RAF1 (human),61%
same,residual activity,ROCK2 (human),96%
same,residual activity,ROS1 (human),98%
same,residual activity,RPS6KB2 (human),108%
same,residual activity,STK39 (human),95.8%
same,residual activity,TBK1 (human),101%
same,residual activity,TEC (human),106%
same,residual activity,TYRO3 (human),86.9%
same,residual activity,WNK2 (human),91.6%
COc1ccc2c(c1)c(C1=C(c3c[nH]c4ccccc34)C(=O)NC1=O)cn2CCCN(C)C,residual activity,ADRBK1 (human),99%
same,residual activity,ADRBK2 (human),96.3%
same,residual activity,BRSK2 (human),61.3%
same,residual activity,CDK1 CCNA2 (human),95.7%
same,residual activity,CDK2 CCNE1 (human),97.9%
same,residual activity,CDK5 CDK5R1 p25 (human),114%
same,residual activity,CDK6 CCND1 (human),64%
same,residual activity,CHEK2 (human),38.8%
same,residual activity,CLK1 (human),48.2%
same,residual activity,CSNK1G1 (human),84.1%
same,residual activity,EPHA1 (human),76.2%
same,residual activity,EPHA4 (human),94.5%
same,residual activity,[1],23.6%
same,residual activity,FYN (human),110%
same,residual activity,GRK7 (human),106%
same,residual activity,LRRK2 (human),87%
same,residual activity,LTK (human),81.9%
same,residual activity,[2],91.6%
same,residual activity,MAP3K5 (human),95.1%
same,residual activity,MAPK11 (human),96.7%
same,residual activity,MAPK9 (human),86.1%
same,residual activity,MARK3 (human),92.2%
same,residual activity,MARK4 (human),95.9%
same,residual activity,MELK (human),70.7%
same,residual activity,MINK1 (human),78.6%
same,residual activity,NEK2 (human),99.7%
same,residual activity,NEK7 (human),99.1%
same,residual activity,PDPK1 (human),76.7%
same,residual activity,PIM1 (human),11.6%
same,residual activity,PNCK (human),103%
same,residual activity,PRKCI (human),67.6%
same,residual activity,PTK2 (human),88.2%
same,residual activity,PTK2B (human),104%
same,residual activity,RAF1 (human),99.3%
same,residual activity,ROCK2 (human),89.2%
same,residual activity,ROS1 (human),52.4%
same,residual activity,RPS6KB2 (human),65.4%
same,residual activity,STK39 (human),111%
same,residual activity,TBK1 (human),90.7%
same,residual activity,TEC (human),97.9%
same,residual activity,TYRO3 (human),90.7%
same,residual activity,WNK2 (human),96.5%
